Assay [1] has as its target T1, human MetAP2 enzyme (Homo sapiens, UniProt P50579). Nature of the assay: MetAP2 enzyme assay, enzyme complexed with cobalt ions. To be noted: MetAP2 Co pIC50, MetAP2 enzyme complexed with cobalt ions; Met-AMC substrate at Km.
Assay [2] has as its target T1, human MetAP2 enzyme. As to the kind of experiment: MetAP2 enzyme assay, enzyme complexed with manganese ions. The following applies: MetAP2 Mn pIC50, MetAP2 enzyme complexed with manganese ions; Met-AMC substrate at Km.

The structures appear in SMILES notation.

In general, IC50 refers to the point on the concentration scale where inhibition reaches its midpoint. A low value points to greater potency.

T1 sequence (P50579 whole entry): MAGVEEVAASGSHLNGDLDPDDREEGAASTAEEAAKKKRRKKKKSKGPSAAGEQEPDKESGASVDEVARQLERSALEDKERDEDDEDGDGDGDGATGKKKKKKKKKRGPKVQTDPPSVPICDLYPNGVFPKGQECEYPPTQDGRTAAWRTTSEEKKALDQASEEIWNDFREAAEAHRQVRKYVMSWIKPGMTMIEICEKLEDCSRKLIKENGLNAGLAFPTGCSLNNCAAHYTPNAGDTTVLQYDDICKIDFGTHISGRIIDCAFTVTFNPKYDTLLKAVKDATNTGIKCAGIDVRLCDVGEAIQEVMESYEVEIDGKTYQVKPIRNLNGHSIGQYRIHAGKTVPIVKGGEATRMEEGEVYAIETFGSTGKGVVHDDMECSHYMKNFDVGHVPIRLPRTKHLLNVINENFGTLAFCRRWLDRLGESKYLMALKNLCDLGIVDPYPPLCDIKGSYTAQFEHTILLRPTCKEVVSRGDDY

In the case of `Cn1ncc(-c2cc(C(F)(F)F)cc3[nH]ncc23)c1N` [Example 165, 1-methyl-4-(6-(trifluoromethyl)-1H-indazol-4-yl)-1H-pyrazol-5-amine], the results for the IC50 on human MetAP2 enzyme [1] and against human MetAP2 enzyme [2] were 1 µM and 0.0631 µM, respectively.

On to `CN(C)C(=O)c1cc(-c2cc(C(F)(F)F)cc3[nH]ncc23)c(=O)n(C)c1` [Example 353, N,N,1-trimethyl-6-oxo-5-(6-(trifluoromethyl)-1H-indazol-4-yl)-1,6-dihydropyridine-3-carboxamide], for which the results for the IC50 on human MetAP2 enzyme [1] and on human MetAP2 enzyme [2] were 0.794 µM and 0.0158 µM, respectively.

For the compound `COc1cncc(-c2cc(C(F)(F)F)cc3[nH]ncc23)c1` [Example 42, 4-(5-methoxypyridin-3-yl)-6-(trifluoromethyl)-1H-indazole], the IC50 is 0.0631 µM on human MetAP2 enzyme [1] and 0.00631 µM at human MetAP2 enzyme [2].

For `O=C1Cc2c(cccc2-c2cc(C(F)(F)F)cc3[nH]ncc23)N1` [Example 129, 4-(6-(trifluoromethyl)-1H-indazol-4-yl)indolin-2-one], the IC50 is 0.01 µM against human MetAP2 enzyme [1] and 0.00398 µM against human MetAP2 enzyme [2].

Turning to `CCNC(=O)c1cccc(-c2cc(C(F)(F)F)cc3[nH]ncc23)c1` [Example 88, N-ethyl-3-(6-(trifluoromethyl)-1H-indazol-4-yl)benzamide], the 50% inhibitory concentration (IC50) on human MetAP2 enzyme [1] is 0.0794 µM; on human MetAP2 enzyme [2], 0.00398 µM.

Turning to `CN(C)S(=O)(=O)c1ccccc1-c1cc(C(F)(F)F)cc2[nH]ncc12` [Example 183, N,N-dimethyl-2-(6-(trifluoromethyl)-1H-indazol-4-yl)benzenesulfonamide], the IC50 against human MetAP2 enzyme [1] is 0.316 µM; at human MetAP2 enzyme [2], 0.0398 µM.

As to `CC(=O)Nc1ccc(-c2cc(C(F)(F)F)cc3[nH]ncc23)c(C)n1` [Example 178, N-(6-methyl-5-(6-(trifluoromethyl)-1H-indazol-4-yl)pyridin-2-yl)acetamide], the IC50 is 0.0316 µM against human MetAP2 enzyme [1] and 0.00794 µM on human MetAP2 enzyme [2].

Regarding `FC(F)(F)c1cc(-c2cnn3ccccc23)c2cn[nH]c2c1` [Example 41, 4-(pyrazolo[1,5-a]pyridin-3-yl)-6-(trifluoromethyl)-1H-indazole], the IC50 is 0.0251 µM on human MetAP2 enzyme [1] and 0.00631 µM on human MetAP2 enzyme [2].

In the case of `CNc1nc(C)c(-c2cc(C(F)(F)F)cc3[nH]ncc23)cc1C(=O)N1CC(O)C1` [Example 397, (3-hydroxyazetidin-1-yl)(6-methyl-2-(methylamino)-5-(6-(trifluoromethyl)-1H-indazol-4-yl)pyridin-3-yl)methanone], the IC50 against human MetAP2 enzyme [1] was 0.0158 µM; against human MetAP2 enzyme [2], 0.00398 µM.

Regarding `COc1ccc(CC(=O)NCCO)cc1-c1cc(C(F)(F)F)cc2[nH]ncc12` [Example 320, N-(2-hydroxyethyl)-2-(4-methoxy-3-(6-(trifluoromethyl)-1H-indazol-4-yl)phenyl)acetamide], the IC50 was 0.0251 µM against human MetAP2 enzyme [1] and 0.0158 µM at human MetAP2 enzyme [2].

On to `CN(C)C(=O)c1ccc(-c2cc(C(F)(F)F)cc3[nH]ncc23)cc1` [Example 119, N,N-dimethyl-4-(6-(trifluoromethyl)-1H-indazol-4-yl)benzamide], for which the IC50 is 0.1 µM on human MetAP2 enzyme [1] and 0.00794 µM against human MetAP2 enzyme [2].

Turning to `O=C(NCc1ccccc1)c1cccc(-c2cc(C(F)(F)F)cc3[nH]ncc23)c1` [Example 34, N-benzyl-3-(6-(trifluoromethyl)-1H-indazol-4-yl)benzamide], the IC50 at human MetAP2 enzyme [1] was 0.316 µM; on human MetAP2 enzyme [2], 0.0316 µM.

Regarding `O=C(NCCO)c1ccc(-c2cc(C(F)(F)F)cc3[nH]ncc23)cc1` [Example 130, N-(2-hydroxyethyl)-4-(6-(trifluoromethyl)-1H-indazol-4-yl)benzamide], the results for the IC50 at human MetAP2 enzyme [1] and at human MetAP2 enzyme [2] were 0.00794 µM and 0.00158 µM, respectively.

Take `O=C(NCCO)c1ncc(-c2cc(C(F)(F)F)cc3[nH]ncc23)cn1` [Example 286, N-(2-hydroxyethyl)-5-(6-(trifluoromethyl)-1H-indazol-4-yl)pyrimidine-2-carboxamide]: the results for the IC50 against human MetAP2 enzyme [1] and on human MetAP2 enzyme [2] were 0.2 µM and 0.00794 µM, respectively.

For the compound `Cc1nnc(-c2cccc(-c3cc(C(F)(F)F)cc4[nH]ncc34)c2)o1` [Example 37, 2-methyl-5-(3-(6-(trifluoromethyl)-1H-indazol-4-yl)phenyl)-1,3,4-oxadiazole], the results for the IC50 on human MetAP2 enzyme [1] and on human MetAP2 enzyme [2] were 0.0398 µM and 0.00794 µM, respectively.

`Cn1cc2c(-c3cc(C(F)(F)F)cc4[nH]ncc34)cccc2n1` [Example 15, 2′-methyl-6-(trifluoromethyl)-1H,2′H-4,4′-biindazole]: the figures for the IC50 on human MetAP2 enzyme [1] and at human MetAP2 enzyme [2] were 0.01 µM and 0.00631 µM, respectively.

Consider `CN(C)CCn1c(=O)c(-c2cc(C(F)(F)F)cc3[nH]ncc23)cn(C)c1=O` [Example 319, 3-(2-(dimethylamino)ethyl)-1-methyl-5-(6-(trifluoromethyl)-1H-indazol-4-yl)pyrimidine-2,4(1H,3H)-dione], for which the 50% inhibitory concentration (IC50) against human MetAP2 enzyme [1] was 1.26 µM; against human MetAP2 enzyme [2] it was 0.0398 µM.

With `O=C(c1cccc(-c2cc(C(F)(F)F)cc3[nH]ncc23)c1)N1CCCC1` [Example 85, pyrrolidin-1-yl(3-(6-(trifluoromethyl)-1H-indazol-4-yl)phenyl)methanone], the results for the IC50 against human MetAP2 enzyme [1] and against human MetAP2 enzyme [2] were 0.0794 µM and 0.00631 µM, respectively.

Consider `Cc1c(-c2cc(C(F)(F)F)cc3[nH]ncc23)ccc2nnnn12` [Example 398, 5-methyl-6-(6-(trifluoromethyl)-1H-indazol-4-yl)tetrazolo[1,5-a]pyridine], for which the figures for the IC50 against human MetAP2 enzyme [1] and against human MetAP2 enzyme [2] were 0.126 µM and 0.00398 µM, respectively.

Turning to `Cc1nc2ccccn2c1-c1cc(C(F)(F)F)cc2[nH]ncc12` [Example 150, 4-(2-methylimidazo[1,2-a]pyridin-3-yl)-6-(trifluoromethyl)-1H-indazole], the results for the IC50 at human MetAP2 enzyme [1] and at human MetAP2 enzyme [2] were 0.794 µM and 0.251 µM, respectively.

Take `FC(F)(F)c1cc(-c2cnn(Cc3ccccn3)c2)c2cn[nH]c2c1` [Example 72, 4-(1-(pyridin-2-ylmethyl)-1H-pyrazol-4-yl)-6-(trifluoromethyl)-1H-indazole]: the IC50 on human MetAP2 enzyme [1] is 0.0251 µM; on human MetAP2 enzyme [2] it was 0.00251 µM.

With `Nc1ncccc1-c1cc(C(F)(F)F)cc2[nH]ncc12` [Example 78, 3-(6-(trifluoromethyl)-1H-indazol-4-yl)pyridin-2-amine], the IC50 was 0.1 µM against human MetAP2 enzyme [1] and 0.00501 µM at human MetAP2 enzyme [2].

Take `N#Cc1ccccc1-c1cc(C(F)(F)F)cc2[nH]ncc12` [Example 52, 2-(6-(trifluoromethyl)-1H-indazol-4-yl)benzonitrile]: the IC50 at human MetAP2 enzyme [1] is 0.126 µM; against human MetAP2 enzyme [2] it was 0.0126 µM.

As for `CS(=O)(=O)c1cncc(-c2cc(C(F)(F)F)cc3[nH]ncc23)c1` [Example 105, 4-(5-(methylsulfonyl)pyridin-3-yl)-6-(trifluoromethyl)-1H-indazole], the values for the IC50 at human MetAP2 enzyme [1] and against human MetAP2 enzyme [2] were 0.316 µM and 0.01 µM, respectively.

`COc1ncc(N)cc1-c1cc(C(F)(F)F)cc2[nH]ncc12` [Example 187, 6-methoxy-5-(6-(trifluoromethyl)-1H-indazol-4-yl)pyridin-3-amine]: the IC50 against human MetAP2 enzyme [1] is 0.0794 µM; against human MetAP2 enzyme [2] it was 0.00794 µM.

`CCn1cc(-c2cc(C(F)(F)F)cc3[nH]ncc23)c(C)n1` [Example 171, 4-(1-ethyl-3-methyl-1H-pyrazol-4-yl)-6-(trifluoromethyl)-1H-indazole]: the IC50 against human MetAP2 enzyme [1] is 0.0631 µM; on human MetAP2 enzyme [2], 0.00501 µM.

For `Cc1cnc(-c2cc(C(F)(F)F)cc3[nH]ncc23)n1C` [Example 162, 4-(1,5-dimethyl-1H-imidazol-2-yl)-6-(trifluoromethyl)-1H-indazole], the results for the IC50 against human MetAP2 enzyme [1] and against human MetAP2 enzyme [2] were 0.316 µM and 0.00631 µM, respectively.

`COc1nccc(-c2cc(C(F)(F)F)cc3[nH]ncc23)c1Cl` [Example 124, 4-(3-chloro-2-methoxypyridin-4-yl)-6-(trifluoromethyl)-1H-indazole]: the IC50 on human MetAP2 enzyme [1] was 0.0631 µM; at human MetAP2 enzyme [2], 0.0158 µM.

For `Cc1nc2[nH]cnc2cc1-c1cc(C(F)(F)F)cc2[nH]ncc12` [Example 195, 5-methyl-6-(6-(trifluoromethyl)-1H-indazol-4-yl)-3H-imidazo[4,5-b]pyridine], the results for the IC50 on human MetAP2 enzyme [1] and on human MetAP2 enzyme [2] were 0.0251 µM and 0.00631 µM, respectively.

With `CC(=O)Nc1cccnc1-c1cc(C(F)(F)F)cc2[nH]ncc12` [Example 218, N-(2-(6-(trifluoromethyl)-1H-indazol-4-yl)pyridin-3-yl)acetamide], the IC50 on human MetAP2 enzyme [1] was 2 µM; at human MetAP2 enzyme [2], 0.251 µM.

`COc1ccc(C(=O)N2CCN(C)C(=O)C2)cc1-c1cc(C(F)(F)F)cc2[nH]ncc12` [Example 325, 4-(4-methoxy-3-(6-(trifluoromethyl)-1H-indazol-4-yl)benzoyl)-1-methylpiperazin-2-one]: the results for the IC50 on human MetAP2 enzyme [1] and against human MetAP2 enzyme [2] were 0.0631 µM and 0.0251 µM, respectively.

For `NC(=O)c1ccc2ncc(-c3cc(C(F)(F)F)cc4[nH]ncc34)n2n1` [Example 276, 3-(6-(trifluoromethyl)-1H-indazol-4-yl)imidazo[1,2-b]pyridazine-6-carboxamide], the IC50 at human MetAP2 enzyme [1] is 0.398 µM; against human MetAP2 enzyme [2], 0.0398 µM.

With `COc1ccc(CC(N)=O)cc1-c1cc(C(F)(F)F)cc2[nH]ncc12` [Example 350, 2-(4-methoxy-3-(6-(trifluoromethyl)-1H-indazol-4-yl)phenyl)acetamide], the IC50 against human MetAP2 enzyme [1] was 0.0316 µM; at human MetAP2 enzyme [2], 0.00794 µM.

Consider `Cn1cc(-c2cc(C(F)(F)F)cc3[nH]ncc23)c(=O)n(CC#N)c1=O` [Example 312, 2-(3-methyl-2,6-dioxo-5-(6-(trifluoromethyl)-1H-indazol-4-yl)-2,3-dihydropyrimidin-1(6H)-yl)acetonitrile], for which the IC50 at human MetAP2 enzyme [1] was 1 µM; against human MetAP2 enzyme [2], 0.0251 µM.

With `CS(=O)(=O)c1cccc(-c2cc(C(F)(F)F)cc3[nH]ncc23)c1` [Example 103, 4-(3-(methylsulfonyl)phenyl)-6-(trifluoromethyl)-1H-indazole], the IC50 against human MetAP2 enzyme [1] is 0.0501 µM; at human MetAP2 enzyme [2], 0.00631 µM.

On to `Cn1ccnc1-c1cc(C(F)(F)F)cc2[nH]ncc12` [Example 147, 4-(1-methyl-1H-imidazol-2-yl)-6-(trifluoromethyl)-1H-indazole], for which the values for the 50% inhibitory concentration (IC50) against human MetAP2 enzyme [1] and against human MetAP2 enzyme [2] were 5.01 µM and 0.126 µM, respectively.

For the origin of these results see patent publication US9434743B2, “Indazole derivatives” (TAKEDA PHARMACEUTICAL COMPANY LIMITED, priority 2012, dated 2016).
